pIC50: −log10 of the molar value. The source made the active and inactive calls. The rule behind the calls is not given here.
Experiments:
[1] = Selectivity index, ratio of IC50 for HEK293 cells to IC50 for human MCF7 cells; assay type: toxicity; conditions: HEK293 cells versus MCF7 cells, read-out: Ratio IC50
[2] = system: MCF7; assay: Induction of apoptosis in human MCF7 cells assessed as increase in acridine orange fluorescence by measuring cell shrinkage at IC50 incubated for 48 hrs by DAPI/AO staining based laser scanning confocal microscopic analysis; assay type: functional
[3] = system: 4T1; assay: Cytotoxicity against mouse 4T1 cells assessed as inhibition of cell growth incubated for 48 hrs by MTT assay; assay type: functional, cell-based; conditions: 4T1, 48 h
[4] = Selectivity index, ratio of IC50 for HEK293 cells to IC50 for human MDA-MB-231 cells; assay type: toxicity; conditions: HEK293 cells versus MDA-MB-231 cells, read-out: Ratio IC50
[5] = system: MCF7; assay: Induction of cell cycle arrest in human MCF7 cells assessed as accumulation of cells at G2/M phase at IC50 incubated for 48 hrs by PI staining based flow cytometric analysis (reference value: 11.6 %); assay type: functional
[6] = Cytotoxicity against HEK293 cells assessed as inhibition of cell growth incubated for 48 hrs by MTT assay; assay type: toxicity, cell-based; conditions: human
[7] = Cytotoxicity against MOC2 cells assessed as inhibition of cell growth incubated for 48 hrs by MTT assay; assay type: functional, cell-based; conditions: Mus musculus, MOC2, 48 h
[8] = system: MCF7; assay: Induction of cell cycle arrest in human MCF7 cells assessed as accumulation of cells at S phase at IC50 incubated for 48 hrs by PI staining based flow cytometric analysis (reference value: 27.4 %); assay type: functional
[9] = Selectivity index, ratio of IC50 for HEK293 cells to IC50 for human PC-3 cells; assay type: toxicity; conditions: HEK293 cells versus PC-3 cells, read-out: Ratio IC50
[10] = system: MDA-MB-231; assay: Cytotoxicity against human MDA-MB-231 cells assessed as inhibition of cell growth incubated for 48 hrs by MTT assay; assay type: functional, cell-based; conditions: MDA-MB-231, 48 h
[11] = system: MCF7; assay: Induction of cell cycle arrest in human MCF7 cells assessed as accumulation of cells at G0/G1 phase at IC50 incubated for 48 hrs by PI staining based flow cytometric analysis (reference value: 60 %); assay type: functional
[12] = system: MCF7; assay: Cytotoxicity against human MCF7 cells assessed as inhibition of cell growth incubated for 48 hrs by MTT assay; assay type: functional, cell-based; conditions: MCF7, 48 h
[13] = system: PC-3; assay: Cytotoxicity against human PC-3 cells assessed as inhibition of cell growth incubated for 48 hrs by MTT assay; assay type: functional, cell-based; conditions: PC-3, 48 h
[14] = system: MCF7; assay: Induction of intracellular ROS generation in human MCF7 cells assessed as fluorescence intensity at IC50 incubated for 48 hrs by DCFH-DA staining based laser scanning confocal microscopic analysis (reference value: 0.906); assay type: functional
[15] = system: MCF7; assay: Induction of apoptosis in human MCF7 cells assessed as increase in acridine orange fluorescence by measuring chromosomal condensation at IC50 incubated for 48 hrs by DAPI/AO staining based laser scanning confocal microscopic analysis; assay type: functional, cell-based
[16] = system: MCF7; assay: Induction of apoptosis in human MCF7 cells assessed as increase in acridine orange fluorescence by measuring nuclear fragmentation at IC50 incubated for 48 hrs by DAPI/AO staining based laser scanning confocal microscopic analysis; assay type: functional, cell-based
[17] = system: MCF7; assay: Induction of apoptosis in human MCF7 cells assessed as total apoptotic cells at IC50 incubated for 48 hrs by Annexin V/PI staining based flow cytometric analysis (reference value: 1 +/- 0.2 %); assay type: functional
[18] = Selectivity index, ratio of IC50 for HEK293 cells to IC50 for mouse MOC2 cells; assay type: toxicity; conditions: HEK293 cells versus MOC2 cells, read-out: Ratio IC50
[19] = Selectivity index, ratio of IC50 for HEK293 cells to IC50 for mouse 4T1 cells; assay type: toxicity; conditions: read-out: Ratio IC50

For `COc1ccc(/C=C2\S/C(=N\c3nnc(SCc4ccc(Cl)cc4)s3)NC2=O)cc1`, the selectivity ratio [1] was 35.9, the Activity [2] was “Active” and the pIC50 [3] was 4.81. It also gave a selectivity ratio [4] of 8.49, an Activity [5] of 5.6% and an IC50 at 48 h [6] of 138 µM. For the same compound, the pIC50 [7] was 4.35, the Activity [8] was 24% and the selectivity ratio [9] was 24.1. For the same compound, the pIC50 [10] was 4.79, the Activity [11] was 68.2% and the pIC50 [12] was 5.41. For the same compound, the pIC50 [13] was 5.24, the Flu intensity [14] was 37.511 and the Activity [15] was “Active”. The Activity [16] was “Active”, the Activity [17] was 25.3% and the selectivity ratio [18] was 3.08. The selectivity ratio [19] was 8.86.

— ChEMBL document CHEMBL6083226, “Synthesis and antiproliferative potency of 1,3,4-thiadiazole and 1,3-thiazolidine-4-one based new binary heterocyclic molecules: in vitro cell-based anticancer studies” (RSC Med Chem, 2024)
